The test system of data set [1] is Colletotrichum lagenarium (Synonym: Colletotrichum orbiculare). In words: Test on the preventive effect against cucumber anthracnose. The class given is in vivo. To be noted: 168 h, 100 ppm solution (symbol *), 5 ml per pot sprayed, 2 days inoculation chamber then 7 days at 23° C.
Data set [2] has the same test system. Described as above. The class given is in vivo. To be noted: 168 h, test solution A 500 ppm, 5 ml per pot sprayed, 2 days inoculation chamber then 7 days at 23° C. The protocol: Compounds of the present invention were dissolved in a solvent for emulsion (a mixture of Sorpol (registered trademark) 3005XL (manufactured by Toho Chemical Industry Co., Ltd.): N-methylpyrrolidone: Solvesso (registered trademark) 200 (manufactured by ExxonMobil Chemical) in a ratio of 1:5:2) to prepare 20 wt % emulsifiable concentrates. Then, distilled water was added to dilute the emulsifiable concentrates to the prescribed concentration (500 ppm), and the obtained solutions were used in the following the Test Examples 1 to 8. Cucumber (varieties: Sagami Hanjiro) was seeded in 90 cm^3 plastic pot, and at the cotyledon stage, 5 ml per pot of test solution A of the compounds of the present invention was sprayed. One day later, a suspension of conidium of Colletotrichum lagenarium (Synonym: Colletotrichum orbiculare) was sprayed, and the pot was left for 2 days in the inoculation chamber at 25° C. under humidity of 100% RH. Thereafter, the pot was placed in an air-conditioned greenhouse (23° C.) and left at the same temperature for 7 days. Thereafter, the proportion of the formed lesion in the inoculated leaves were measured to calculate the control value in accordance with the same formula as in Test Example 1. The test was carried out in duplicate.

The test system of data set [3] is Phaeosphaeria nodorum (Synonym: Septoria nodorum). In words: Test on the preventive effect against wheat glume blotch. The class given is in vivo. To be noted: Parastagonospora nodorum, 144 h; test solution A 500 ppm, 5 ml per pot, wheat 1.3-leaf stage, 2 days inoculation chamber then 6 days at 20° C. The protocol: Compounds of the present invention were dissolved in a solvent for emulsion (a mixture of Sorpol (registered trademark) 3005XL (manufactured by Toho Chemical Industry Co., Ltd.): N-methylpyrrolidone: Solvesso (registered trademark) 200 (manufactured by ExxonMobil Chemical) in a ratio of 1:5:2) to prepare 20 wt % emulsifiable concentrates. Then, distilled water was added to dilute the emulsifiable concentrates to the prescribed concentration (500 ppm), and the obtained solutions were used in the following the Test Examples 1 to 8. Wheat (varieties: Haruyutaka) was seeded in 90 cm^3 plastic pot, and at 1.3-leaf stage, 5 ml per pot of test solution A of the compounds of the present invention was applied. One day after treatment, a suspension of conidium of Phaeosphaeria nodorum (Synonym: Septoria nodorum) was sprayed to the wheat, and the pot was left in the inoculation chamber at 20° C. under humidity of 100% RH for 2 days. Then, the pot was placed in an air-conditioned greenhouse (20° C.) for 6 days. The proportion of the formed lesion in the inoculated leaves were measured to calculate the control value in accordance with the same formula as in the Test Example 1. The test was carried out in duplicate.

Data set [4] deals with Erysiphe polygoni (synonym: Erysiphe betae). The experiment in a line: Test on the preventive effect against cucumber powdery mildew. The class given is in vivo. The settings on record: 216 h, test solution A 500 ppm, 5 ml per pot sprayed, cucumber cotyledon stage, 9 days after inoculation. The protocol:
Compounds of the present invention were dissolved in a solvent for emulsion (a mixture of Sorpol (registered trademark) 3005XL (manufactured by Toho Chemical Industry Co., Ltd.): N-methylpyrrolidone: Solvesso (registered trademark) 200 (manufactured by ExxonMobil Chemical) in a ratio of 1:5:2) to prepare 20 wt % emulsifiable concentrates. Then, distilled water was added to dilute the emulsifiable concentrates to the prescribed concentration (500 ppm), and the obtained solutions were used in the following the Test Examples 1 to 8. Cucumber (varieties: Sagami Hanjiro) was seeded in 90 cm^3 plastic pot, and at the cotyledon stage, 5 ml per pot of test solution A of the compounds of the present invention was sprayed. After drying in air, the pot was placed in an air-conditioned greenhouse (20° C.), and a suspension of conidium of Erysiphe polygoni (synonym: Erysiphe betae) was sprayed. After the pot were replaced at the same temperature for 9 days, the proportion of the formed lesion in the inoculated leaves were counted to calculate the control value in accordance with the following formula. The test was carried out in duplicate. Control value=[1−(lesion area ratio in treated plot/lesion are a ratio in non-treated plot)]×100

Another data set concerns Botrytis cinerea. In words: Test on the preventive effect against cucumber gray mold (spore inoculation). The format is in vivo. The settings on record: 72 h, test solution A 500 ppm, 5 ml per pot, cucumber cut leaves, conidium inoculation, 3 days at 20° C. The protocol: Compounds of the present invention were dissolved in a solvent for emulsion (a mixture of Sorpol (registered trademark) 3005XL (manufactured by Toho Chemical Industry Co., Ltd.): N-methylpyrrolidone: Solvesso (registered trademark) 200 (manufactured by ExxonMobil Chemical) in a ratio of 1:5:2) to prepare 20 wt % emulsifiable concentrates. Then, distilled water was added to dilute the emulsifiable concentrates to the prescribed concentration (500 ppm), and the obtained solutions were used in the following the Test Examples 1 to 8. Cucumber (varieties: Sagami Hanjiro) was seeded in 90 cm^3 plastic pot, and at the cotyledon stage, 5 ml per pot of test solution A of the compounds of the present invention was applied. After drying in air, the treated leaves were cut and transferred in plastic containers. 30 μl of a mixture of a suspension of conidium of Botrytis cinerea and a dissolved PDA medium in a ratio of 1:1 was dropped on each treated leaf and inoculated. After the inoculation, the plastic containers were placed in 20° C. with humid conditions for 3 days, and the proportion of the formed lesion in the inoculated leaves were counted to calculate the control value in accordance with the same formula as in the Test Example 1. The test was carried out in duplicate.

Where only a bound is given, the exact number is not on record here.

As for `CC(Cc1ncc(C#CCO)cc1Cl)NC(=O)c1cn(C)nc1C(F)F` (stereo not drawn) [8-025], in data set [1], the pest or weed control at 100 ppm was at least 70%.
For the compound `CC(NC(=O)c1cccnc1C(F)F)C(SCC(F)(F)F)c1ncc(C#CC2CC2)cc1Cl` (stereo not drawn) [3-033a], the melting point lay within 72 to 74 °C. In addition, in data set [2], the pest or weed control at 500 µg/mL is at least 70%. The compound also displayed a pest or weed control at 500 µg/mL in data set [3] of at least 70%. Besides, the pest or weed control at 500 µg/mL in data set [4] was at least 70%. This compound had a pest or weed control at 500 µg/mL in the data set on Botrytis cinerea of at least 70%.

Source of the values: patent US10029986B2, “Alkynyl pyridine-substituted amide compound and pesticide” (NISSAN CHEMICAL INDUSTRIES, LTD., priority 2014, dated 2018).
